Legend:
[1] = system: Female, Dutch Belted rabbits; assay: Anesthetized rabbit model: intraurethral pressure (IUP) and mean arterial blood pressure (MAP); type: in vivo; conditions: i.v.; for durability of IUP response over time: slope of IUP response 2-7 minutes post the first peak, top 3 doses
Procedure: In general, IUP is the intraurethral pressure and is measured as the 2 minute mean from the first peak of the urethral response (FIG. 1). MAP is the mean arterial blood pressure and is measured as the average blood pressure during the 2 minute section where IUP is measured. The durability is the slope of the IUP response in mmHg/min and is calculated immediately after the 2 minute IUP response for 5 minutes (2-7 minutes post the first peak) for the top 3 doses.
Surgery: Female, Dutch Belted rabbits (1.20-2.0 kg, Myrtle's Rabbitry, Tenn.) were anesthetized with isoflurane (3.0% at 2 to 4 L/min) and urethane (1.5 grams/kg, s.c.). In preparation for surgery, the rabbits were shaved, scrubbed (i.e., perineal area, ventral neck, and ventral, caudal surface of the abdomen) and were administered Ringers Lactate Solution (s.c.) to maintain fluids. The femoral vein and carotid artery were isolated and cannulated with PE-50 and PE-90 tubing (Becton-Dickinson), respectively, for the administration of drugs (vein) and the measurement of blood pressure (artery). An abdominal incision was made, exposing the ureters and the bladder. The ureters were isolated and cannulated proximal to the urinary bladder with PE-50 tubing, to drain urine from the kidneys. […]
Experiment: The arterial cannula was connected to a P23XL pressure transducer (Grass Technologies, West Warwick, R.I.) and the arterial pressure transducer and Unisensor urethral transducer catheter were connected to an Gould 13-6615-50 amplifier (Data Sciences International, St. Paul, Minn.) and Gould TA6000 recorder (Data Sciences International, St. Paul, Minn.) in parallel. All data was analyzed using Power Lab Chart version 5.0.2 (ADInstruments, Colorado Springs, Colo.) data acquisition system. […]
Measurements: The change in IUP and MAP from baseline were measured as well as the slope of the IUP response. MAP was first calculated according to the following formula, where Pd is diastolic pressure and Ps is systolic pressure: MAP=Pd+⅓ (Ps−Pd). Pre-dose baseline values for IUP and MAP were assessed during a 2 min period just prior to vehicle or test compound administration. Post-dose values for IUP or MAP were determined during a 2 min period at the first peak in the IUP tracing following vehicle or test compound administration. The change in IUP and MAP induced by vehicle or test compound were then calculated by subtracting the pre-dose value from the post-dose value. The rate of decline (mmHg/min) in the IUP response was determined by taking the average slope during the 5 min. period immediately following the 2 min. efficacy measurement for the top three doses. […]

[2] = target: T1, alpha-1A adrenoceptors (Homo sapiens, UniProt P35348); assay: alpha-1A adrenoceptor partial agonist activity (intrinsic activity and pEC50); type: cell-based
T1 sequence (P35348 1-466): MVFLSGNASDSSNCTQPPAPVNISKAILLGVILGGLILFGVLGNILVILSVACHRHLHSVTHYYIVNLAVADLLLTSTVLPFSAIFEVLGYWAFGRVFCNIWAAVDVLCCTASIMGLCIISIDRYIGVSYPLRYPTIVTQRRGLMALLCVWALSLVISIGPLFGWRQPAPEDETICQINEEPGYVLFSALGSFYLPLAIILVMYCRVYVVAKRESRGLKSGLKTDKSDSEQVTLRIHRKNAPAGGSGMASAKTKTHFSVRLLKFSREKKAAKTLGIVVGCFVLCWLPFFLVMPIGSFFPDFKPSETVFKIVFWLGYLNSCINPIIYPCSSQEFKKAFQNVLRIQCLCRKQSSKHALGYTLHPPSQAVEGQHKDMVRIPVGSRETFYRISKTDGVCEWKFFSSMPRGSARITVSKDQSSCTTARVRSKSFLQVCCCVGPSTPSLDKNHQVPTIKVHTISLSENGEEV

Cc1c(CC2=NCCN2)ccc(NS(C)(=O)=O)c1F [Formula I, N-[4-(4,5-Dihydro-1H-imidazol-2-ylmethyl)-2-fluoro-3-methyl-phenyl]-methanesulfonamide]
maximum increase in MAP (arterial blood pressure) [1]: 10.62 mmHg | selectivity for enhancement of intraurethral pressure (IUP) over blood pressure (MAP) (Urethral Selectivity MAP/IUP = ED10 of MAP/ED10 of IUP) ([1]; at the 10 mmHg change in IUP level): 2.13 fold | durability of IUP response over time [1]: improved durability of IUP response over time | durability of IUP response over time ([1]; listed as formula I): increased durability of IUP response over time | intrinsic activity, or efficacy, as a partial agonist ([2]; ideally between 0.35 to 0.60): 0.46 | EC50 ([2]; read-out: affinity, or pEC50 value (converted)): 631 nM
